In patent publication US11590139B2, “Substituted aminopurine compounds, compositions thereof, and methods of treatment therewith” (Signal Pharmaceuticals, LLC, priority 2014, dated 2023):

Tested on: Lox-IMVI melanoma cell line
Experiment: Lox-IMVI anti-proliferative assay (growth inhibition, Cell Titer-Glo)
Format: cell-based, human
Conditions: Homo sapiens; IC50 activity level in the cell-based Lox-IMVI anti-proliferative assay; read-out: Activity
In short: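 Lox-IMVI cells in RPMI+10% FBS exposed 72 h at 37 °C to 10-point, 3-fold dilutions (0.5 nM–10 μM; 0.2% DMSO final), in duplicate. Viability by Cell Titer-Glo luminescence, with a t0 cell-number reading; data as % of DMSO control; IC50 from a four-parameter logistic fit.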

First: NC(=O)[C@H]1CC[C@@H](n2c(Nc3c(F)cccc3Cl)nc3cnc(NC4CCN(c5cccnc5)CC4)nc32)CC1 [Example 107, (1s,4s)-4-(8-(2-chloro-6-fluorophenylamino)-2-(1-(pyridin-3-yl)piperidin-4-ylamino)-9H-purin-9-yl)cyclohexanecarboxamide]
Second: NC(=O)[C@H]1CC[C@@H](n2c(Nc3c(Cl)cccc3Cl)nc3cnc(N[C@H]4CC[C@H](O)C4)nc32)CC1 [Example 327, (1R,4s)-4-(8-(2,6-dichlorophenylamino)-2-((1S,3S)-3-hydroxycyclopentylamino)-9H-purin-9-yl)cyclohexanecarboxamide]
The IC50 of the first is higher: greater than 1000 nM for the first, 500 to 1000 nM for the second. The second is the more potent here.

`NC(=O)[C@H]1CC[C@@H](n2c(Nc3c(F)cccc3F)nc3cnc(N[C@@H]4CCC[C@H](O)C4)nc32)CC1` [Example 348, (1S,4s)-4-(8-(2,6-difluorophenylamino)-2-((1R,3S)-3-hydroxycyclohexylamino)-9H-purin-9-yl)cyclohexanecarboxamide] and `NC(=O)[C@H]1CC[C@@H](n2c(Nc3c(F)ccc(Cl)c3F)nc3cnc(N[C@H]4CCC[C@@H](O)C4)nc32)CC1` [Example 377, (1R,4s)-4-(8-(3-chloro-2,6-difluorophenylamino)-2-((1S,3R)-3-hydroxycyclohexylamino)-9H-purin-9-yl)cyclohexanecarboxamide] cannot be ordered by IC50: greater than 1000 nM for the first, greater than 1000 nM for the second.

First: NC(=O)[C@H]1CC[C@@H](n2c(Nc3c(Cl)cccc3Cl)nc3cnc(NC4COCC4O)nc32)CC1 (stereo partly shown) [Example 180, (1s,4s)-4-(8-(2,6-dichlorophenylamino)-2-(4-hydroxytetrahydrofuran-3-ylamino)-9H-purin-9-yl)cyclohexanecarboxamide]
Second: NC(=O)[C@H]1CC[C@@H](n2c(Nc3c(Cl)cc(Cl)cc3Cl)nc3cnc(N[C@@H]4CC[C@H](O)C4)nc32)CC1 [Example 333, (1S,4s)-4-(2-((1R,3S)-3-hydroxycyclopentylamino)-8-(2,4,6-trichlorophenylamino)-9H-purin-9-yl)cyclohexanecarboxamide]
The IC50 of the first is higher: greater than 1000 nM for the first, 500 to 1000 nM for the second. The second is the more potent here.

`CS(=O)(=O)N1CCC(Nc2ncc3nc(Nc4ccc(Cl)cc4Cl)n([C@H]4CC[C@@H](C(N)=O)CC4)c3n2)CC1` [Example 299, (1s,4s)-4-(8-(2,4-dichlorophenylamino)-2-(1-(methylsulfonyl)piperidin-4-ylamino)-9H-purin-9-yl)cyclohexanecarboxamide] and `NC(=O)[C@H]1CC[C@@H](n2c(Nc3ccc(Cl)c(Cl)c3Cl)nc3cnc(NC4CCOCC4)nc32)CC1` [Example 73, (1s,4s)-4-(2-(tetrahydro-2H-pyran-4-ylamino)-8-(2,3,4-trichlorophenylamino)-9H-purin-9-yl)cyclohexanecarboxamide] cannot be ordered by IC50: greater than 1000 nM for the first, greater than 1000 nM for the second.

First: Cc1cc(F)cc(F)c1Nc1nc2cnc(NC3CCOCC3)nc2n1[C@H]1CC[C@@H](C(N)=O)CC1 [Example 86, (1s,4s)-4-(8-(2,4-difluoro-6-methylphenylamino)-2-(tetrahydro-2H-pyran-4-ylamino)-9H-purin-9-yl)cyclohexanecarboxamide]
Second: NC(=O)[C@H]1CC[C@@H](n2c(Nc3c(F)ccc(F)c3Cl)nc3cnc(NC4CCOCC4)nc32)CC1 [Example 90, (1s,4s)-4-(8-(2-chloro-3,6-difluorophenylamino)-2-(tetrahydro-2H-pyran-4-ylamino)-9H-purin-9-yl)cyclohexanecarboxamide]
The IC50 of the first is higher: greater than 1000 nM for the first, 250 to 500 nM for the second.

Compared with `NC(=O)[C@H]1CC[C@@H](n2c(Nc3c(Cl)cc(Cl)cc3Cl)nc3cnc(NCC4(CO)CC4)nc32)CC1` [Example 205, (1s,4s)-4-(2-((1-(hydroxymethyl)cyclopropyl)methylami-no)-8-(2,4,6-trichlorophenylamino)-9H-purin-9-yl)cyclohexanecarboxamide], `NC(=O)[C@H]1CC[C@@H](n2c(Nc3c(Cl)cc(Cl)cc3Cl)nc3cnc(NC4CCCC4)nc32)CC1` [Example 68, (1s,4s)-4-(2-(cyclopentylamino)-8-(2,4,6-trichlorophenylamino)-9H-purin-9-yl)cyclohexanecarboxamide] is lower in IC50: greater than 1000 nM for the first, 500 to 1000 nM for the second.

Compared with `NC(=O)[C@H]1CC[C@@H](n2c(Nc3c(F)cc(Cl)cc3F)nc3cnc(NC4CCC(F)(F)CC4)nc32)CC1` [Example 200, (1s,4s)-4-(8-(4-chloro-2,6-difluorophenylamino)-2-(4,4-difluorocyclohexylamino)-9H-purin-9-yl)cyclohexanecarboxamide], `NC(=O)[C@H]1CC[C@@H](n2c(Nc3c(F)cc(Cl)cc3Cl)nc3cnc(N[C@H]4C[C@H](O)C4)nc32)CC1` [Example 301, (1s,4s)-4-(8-(2,4-dichloro-6-fluorophenylamino)-2-((1r,3r)-3-hydroxycyclobutylamino)-9H-purin-9-yl)cyclohexanecarboxamide] is higher in IC50: 250 to 500 nM for the first, 500 to 1000 nM for the second.

Compared with `N#Cc1cc(Cl)c(Nc2nc3cnc(NC4CCC4)nc3n2[C@H]2CC[C@@H](C(N)=O)CC2)c(Cl)c1` [Example 392, (1s,4s)-4-(2-(cyclobutylamino)-8-(2,6-dichloro-4-cyanophenylamino)-9H-purin-9-yl)cyclohexanecarboxamide], `CC(C)(C)OC(=O)N1CCC[C@@H](Nc2ncc3nc(Nc4c(Cl)cccc4Cl)n([C@H]4CC[C@@H](C(N)=O)CC4)c3n2)C1` [Example 160, (R)-tert-butyl 3-(9-((1s,4S)-4-carbamoylcyclohexyl)-8-(2,6-dichlorophenylamino)-9H-purin-2-ylamino)piperidine-1-carboxylate] is higher in IC50: less than 250 nM for the first, greater than 1000 nM for the second.

In the case of `NC(=O)[C@H]1CC[C@@H](n2c(Nc3ccc(F)c(F)c3F)nc3cnc(N[C@@H]4CC[C@@H](O)C4)nc32)CC1` [Example 220, (1S,4s)-4-(2-((1R,3R)-3-hydroxycyclopentylamino)-8-(2,3,4-trifluorophenylamino)-9H-purin-9-yl)cyclohexanecarboxamide], the IC50 is reported as greater than 1000 nM.

Same assay, conditions: Homo sapiens; Lox-IMVI anti-proliferative assay, IC50 activity level; read-out: Activity

First: N#Cc1cc(F)c(Nc2nc3cnc(N[C@@H]4CCC[C@H](O)C4)nc3n2[C@H]2CC[C@@H](C(N)=O)CC2)c(F)c1 [Example 457, (1S,4s)-4-(8-(4-cyano-2,6-difluorophenylamino)-2-((1R,3S)-3-hydroxycyclohexylamino)-9H-purin-9-yl)cyclohexanecarboxamide]
Second: C[C@@H]1COCC[C@@H]1Nc1ncc2nc(Nc3c(Cl)cc(C#N)cc3Cl)n([C@H]3CC[C@@H](C(N)=O)CC3)c2n1 [Example 498, (1R,4s)-4-(8-(2,6-dichloro-4-cyanophenylamino)-2-((3S,4S)-3-methyltetrahydro-2H-pyran-4-ylamino)-9H-purin-9-yl)cyclohexanecarboxamide]
The IC50 of the first is higher: greater than 1000 nM for the first, 250 to 500 nM for the second.

`C[C@]1(C(N)=O)CC[C@@H](n2c(Nc3c(F)cc(F)cc3F)nc3cnc(NC4CC(F)(F)C4)nc32)CC1` [Example 578, (1s,4s)-4-(2-(3,3-difluorocyclobutylamino)-8-(2,4,6-trifluorophenylamino)-9H-purin-9-yl)-1-methylcyclohexanecarboxamide] and `C[C@]1(C(N)=O)CC[C@@H](n2c(Nc3c(F)cc(C#N)cc3Cl)nc3cnc(NC4CCCC4)nc32)CC1` [Example 575, (1s,4s)-4-(8-(2-chloro-4-cyano-6-fluorophenylamino)-2-(cyclopentylamino)-9H-purin-9-yl)-1-methylcyclohexanecarboxamide] cannot be ordered by IC50: less than 250 nM for the first, less than 250 nM for the second.

Same assay, conditions: Homo sapiens; Lox-IMVI melanoma cell line, anti-proliferative assay; read-out: Activity (IC50 activity level)

`C[C@]1(C(N)=O)CC[C@@H](n2c(Nc3c(F)cc(C#N)cc3Cl)nc3cnc(N[C@H]4CCC[C@@H](O)C4)nc32)CC1` [Example 633, (1R,4s)-4-(8-(2-chloro-4-cyano-6-fluorophenylamino)-2-((1S,3R)-3-hydroxycyclohexylamino)-9H-purin-9-yl)-1-methylcyclohexanecarboxamide] and `C[C@]1(C(N)=O)CC[C@@H](n2c(Nc3c(Cl)cc(Cl)cc3Cl)nc3cnc(N[C@H]4CC[C@H](O)C4)nc32)CC1` [Example 645, (1R,4s)-4-(2-((1S,3S)-3-hydroxycyclopentylamino)-8-(2,4,6-trichlorophenylamino)-9H-purin-9-yl)-1-methylcyclohexanecarboxamide] fall in the same range of IC50: 500 to 1000 nM for the first, 500 to 1000 nM for the second.

First: CS(=O)(=O)N1CCC[C@@H](Nc2ncc3nc(Nc4c(F)cc(Cl)cc4Cl)n([C@H]4CC[C@@H](C(N)=O)CC4)c3n2)C1 [Example 701, (1S,4s)-4-(8-(2,4-dichloro-6-fluorophenylamino)-2-((R)-1-(methylsulfonyl)piperidin-3-ylamino)-9H-purin-9-yl)cyclohexanecarboxamide]
Second: NC(=O)[C@H]1CC[C@@H](n2c(Nc3c(F)cc(Cl)cc3Cl)nc3cnc(N[C@@H]4CCCN(Cc5ccccc5)C4)nc32)CC1 [Example 758, (1S,4s)-4-(2-((R)-1-benzylpiperidin-3-ylamino)-8-(2,4-dichloro-6-fluorophenylamino)-9H-purin-9-yl)cyclohexanecarboxamide]
The IC50 of the first is lower: 500 to 1000 nM for the first, greater than 1000 nM for the second. The first is the more potent here.

`NC(=O)[C@H]1CC[C@@H](n2c(Nc3c(Cl)cc(Cl)cc3Cl)nc3cnc(NC[C@@H]4CCCC[C@H]4O)nc32)CC1` [Example 661, (1R,4s)-4-(2-(((1S,2R)-2-hydroxycyclohexyl)methylamino)-8-(2,4,6-trichlorophenylamino)-9H-purin-9-yl)cyclohexanecarboxamide] and `CC(C)OC(=O)N1CCC[C@@H](Nc2ncc3nc(Nc4c(Cl)cc(F)cc4Cl)n([C@H]4CC[C@@H](C(N)=O)CC4)c3n2)C1` [Example 775, (R)-isopropyl 3-(9-((1s,4S)-4-carbamoylcyclohexyl)-8-(2,6-dichloro-4-fluorophenylamino)-9H-purin-2-ylamino)piperidine-1-carboxylate] cannot be ordered by IC50: greater than 1000 nM for the first, greater than 1000 nM for the second.

For `N#Cc1cc(Cl)c(Nc2nc3cnc(N[C@@H]4CCCN(C(=O)Nc5ccccc5)C4)nc3n2[C@H]2CC[C@@H](C(N)=O)CC2)c(Cl)c1` [Example 780, (R)-3-(9-((1s,4S)-4-carbamoylcyclohexyl)-8-(2,6-dichloro-4-cyanophenylamino)-9H-purin-2-ylamino)-N-phenylpiperidine-1-carboxamide], the IC50 was greater than 1000 nM.
